PubChem BioAssay (NCI)
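Grown in 96-well plates, cells were treated for 48 hours with each compound at five concentrations. Insufficient inhibition: endpoint recorded as highest concentration tested. GI50: concentration for 50% inhibition of growth. Definition used: TGI = concentration required for complete inhibition of growth.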

Assays:
Assay in all cases: NCI-60 cell line screen, 48 h
SW-620 colon = tested on: SW-620 colon
U251 CNS = tested on: U251 CNS
HT29 colon = tested on: HT29 colon
SK-MEL-5 melanoma = tested on: SK-MEL-5 melanoma
NCI/ADR-RES ovarian = tested on: NCI/ADR-RES ovarian
SR leukemia = tested on: SR leukemia
TK-10 renal = tested on: TK-10 renal
UACC-257 melanoma = tested on: UACC-257 melanoma
CAKI-1 renal = tested on: CAKI-1 renal
SNB-19 CNS = tested on: SNB-19 CNS
786-0 renal = tested on: 786-0 renal
MCF7 breast = tested on: MCF7 breast
NCI-H460 lung = tested on: NCI-H460 lung
COLO 205 colon = tested on: COLO 205 colon
MDA-MB-231 breast = tested on: MDA-MB-231 breast
HCT-116 colon = tested on: HCT-116 colon
HCC-2998 colon = tested on: HCC-2998 colon
A549 NSCLC = tested on: A549 NSCLC
RXF 393 renal = tested on: RXF 393 renal
HOP-62 NSCLC = tested on: HOP-62 NSCLC
M14 melanoma = tested on: M14 melanoma
CCRF-CEM leukemia = tested on: CCRF-CEM leukemia
IGROV1 ovarian = tested on: IGROV1 ovarian
HS 578T breast = tested on: HS 578T breast
SF-268 CNS = tested on: SF-268 CNS
PC-3 prostate = tested on: PC-3 prostate
MDA-MB-435 = tested on: MDA-MB-435
DU-145 prostate = tested on: DU-145 prostate
RPMI-8226 leukemia = tested on: RPMI-8226 leukemia
SK-MEL-28 melanoma = tested on: SK-MEL-28 melanoma
OVCAR-5 ovarian = tested on: OVCAR-5 ovarian
A498 renal = tested on: A498 renal
MOLT-4 leukemia = tested on: MOLT-4 leukemia
UACC-62 melanoma = tested on: UACC-62 melanoma
HL-60(TB) leukemia = tested on: HL-60(TB) leukemia
SN12C renal = tested on: SN12C renal
HCT-15 colon = tested on: HCT-15 colon
BT-549 breast = tested on: BT-549 breast
OVCAR-4 ovarian = tested on: OVCAR-4 ovarian
K-562 leukemia = tested on: K-562 leukemia
NCI-H23 lung = tested on: NCI-H23 lung
KM12 colon = tested on: KM12 colon
NCI-H522 lung = tested on: NCI-H522 lung
SF-539 CNS = tested on: SF-539 CNS
SK-MEL-2 melanoma = tested on: SK-MEL-2 melanoma
ACHN renal = tested on: ACHN renal
UO-31 renal = tested on: UO-31 renal
T-47D breast = tested on: T-47D breast
EKVX NSCLC = tested on: EKVX NSCLC
NCI-H226 lung = tested on: NCI-H226 lung
MALME-3M melanoma = tested on: MALME-3M melanoma
OVCAR-8 ovarian = tested on: OVCAR-8 ovarian
SNB-75 CNS = tested on: SNB-75 CNS
SK-OV-3 ovarian = tested on: SK-OV-3 ovarian
HOP-92 NSCLC = tested on: HOP-92 NSCLC

In the case of `C#C[C@]1(O)CC[C@H]2[C@@H]3CC=C4c5sc(Nc6cc(Cl)ccn6)nc5CC[C@]4(C)[C@H]3CC[C@@]21C`, the GI50 (SW-620 colon) is reported as 1090 nM, the TGI (SW-620 colon) is reported as 2680 nM and the GI50 (U251 CNS) is reported as 425 nM. For the same molecule, the TGI (U251 CNS) was 1670 nM, the GI50 (HT29 colon) was 1420 nM and the TGI (HT29 colon) was 3150 nM. The GI50 (SK-MEL-5 melanoma) was 1740 nM, the TGI (SK-MEL-5 melanoma) was 3320 nM and the GI50 (NCI/ADR-RES ovarian) was 1950 nM. It also gave a TGI (NCI/ADR-RES ovarian) of 6650 nM, a GI50 (SR leukemia) of 308 nM and a TGI (SR leukemia) of 1380 nM. The GI50 (TK-10 renal) was 2210 nM, the TGI (TK-10 renal) was 11400 nM and the GI50 (UACC-257 melanoma) was 727 nM. It also gave a TGI (UACC-257 melanoma) of 2200 nM, a GI50 (CAKI-1 renal) of 725 nM and a TGI (CAKI-1 renal) of 2200 nM. The GI50 (SNB-19 CNS) was 1230 nM, the GI50 (786-0 renal) was 227 nM and the TGI (786-0 renal) was 594 nM. It also gave a GI50 (MCF7 breast) of 516 nM, a TGI (MCF7 breast) of 3430 nM and a GI50 (NCI-H460 lung) of 922 nM. For the same molecule, the TGI (NCI-H460 lung) was 2670 nM, the GI50 (COLO 205 colon) was 1660 nM and the TGI (COLO 205 colon) was 3420 nM. It also gave a GI50 (MDA-MB-231 breast) of 1580 nM, a TGI (MDA-MB-231 breast) of 4610 nM and a GI50 (HCT-116 colon) of 784 nM. The TGI (HCT-116 colon) was 2350 nM, the GI50 (HCC-2998 colon) was 2190 nM and the TGI (HCC-2998 colon) was 5520 nM. It also gave a GI50 (A549 NSCLC) of 1180 nM, a TGI (A549 NSCLC) of 2610 nM and a GI50 (RXF 393 renal) of 124 nM. The TGI (RXF 393 renal) was 380 nM, the GI50 (HOP-62 NSCLC) was 759 nM and the TGI (HOP-62 NSCLC) was 2670 nM. It also gave a GI50 (M14 melanoma) of 736 nM, a TGI (M14 melanoma) of 2270 nM and a GI50 (CCRF-CEM leukemia) of 463 nM. For the same molecule, the TGI (CCRF-CEM leukemia) was > 22500 nM, the GI50 (IGROV1 ovarian) was 1780 nM and the TGI (IGROV1 ovarian) was > 21200 nM. It also gave a GI50 (HS 578T breast) of 278 nM, a TGI (HS 578T breast) of 1170 nM and a GI50 (SF-268 CNS) of 1450 nM. For the same molecule, the TGI (SF-268 CNS) was 4550 nM, the GI50 (PC-3 prostate) was 386 nM and the TGI (PC-3 prostate) was 3640 nM. It also gave a GI50 (MDA-MB-435) of 1060 nM, a TGI (MDA-MB-435) of 3090 nM and a GI50 (DU-145 prostate) of 2530 nM. For the same molecule, the TGI (DU-145 prostate) was > 100000 nM, the GI50 (RPMI-8226 leukemia) was 212 nM and the TGI (RPMI-8226 leukemia) was 749 nM. It also gave a GI50 (SK-MEL-28 melanoma) of 317 nM, a TGI (SK-MEL-28 melanoma) of 1100 nM and a GI50 (OVCAR-5 ovarian) of 2140 nM. The TGI (OVCAR-5 ovarian) was > 20400 nM, the GI50 (A498 renal) was 828 nM and the TGI (A498 renal) was 2280 nM. For the same molecule, the GI50 (MOLT-4 leukemia) was 321 nM, the TGI (MOLT-4 leukemia) was 1950 nM and the GI50 (UACC-62 melanoma) was 846 nM. It also gave a TGI (UACC-62 melanoma) of 3900 nM, a GI50 (HL-60(TB) leukemia) of 402 nM and a TGI (HL-60(TB) leukemia) of 2070 nM. For the same molecule, the GI50 (SN12C renal) was 3360 nM, the TGI (SN12C renal) was > 100000 nM and the GI50 (HCT-15 colon) was 1010 nM. It also gave a TGI (HCT-15 colon) of 4880 nM, a GI50 (BT-549 breast) of 627 nM and a TGI (BT-549 breast) of 2360 nM. The GI50 (OVCAR-4 ovarian) was 2800 nM, the TGI (OVCAR-4 ovarian) was > 26200 nM and the GI50 (K-562 leukemia) was 366 nM. It also gave a TGI (K-562 leukemia) of 2450 nM, a GI50 (NCI-H23 lung) of 1350 nM and a TGI (NCI-H23 lung) of 4710 nM. It also gave a GI50 (KM12 colon) of 1630 nM, a TGI (KM12 colon) of 8590 nM and a GI50 (NCI-H522 lung) of 1830 nM. It also gave a TGI (NCI-H522 lung) of 4080 nM, a GI50 (SF-539 CNS) of 214 nM and a TGI (SF-539 CNS) of 741 nM. It also gave a GI50 (SK-MEL-2 melanoma) of 1430 nM, a TGI (SK-MEL-2 melanoma) of 3950 nM and a GI50 (ACHN renal) of 834 nM. It also gave a GI50 (UO-31 renal) of 383 nM, a TGI (UO-31 renal) of 1610 nM and a GI50 (T-47D breast) of 2440 nM. For the same molecule, the TGI (T-47D breast) was > 26300 nM, the GI50 (EKVX NSCLC) was 1080 nM and the TGI (EKVX NSCLC) was 4790 nM. The GI50 (NCI-H226 lung) was 2140 nM, the TGI (NCI-H226 lung) was 9840 nM and the GI50 (MALME-3M melanoma) was 663 nM. For the same molecule, the TGI (MALME-3M melanoma) was 2100 nM, the GI50 (OVCAR-8 ovarian) was 1400 nM and the TGI (OVCAR-8 ovarian) was 3190 nM. It also gave a GI50 (SNB-75 CNS) of 637 nM, a GI50 (SK-OV-3 ovarian) of 663 nM and a TGI (SK-OV-3 ovarian) of 2170 nM. For the same molecule, the GI50 (HOP-92 NSCLC) was 1530 nM and the TGI (HOP-92 NSCLC) was 3370 nM.
